Data reported in US5120782A, “Substituted pyrrolo-pyridines pharmaceuticals” (Bayer Aktiengesellschaft, priority 1990, dated 1992).

Target: T1, 3-hydroxy-3-methyl-glutaryl-coenzyme A (HMG-CoA) reductase (Rattus norvegicus, UniProt P51639)
T1 construct: the livers were removed from the animals and placed on ice; from tissue; host or cells: liver of male Rico rats fed colestyramine; 100,000 g (microsomal) pellet, frozen at -78° C
T1 sequence (P51639 1-887): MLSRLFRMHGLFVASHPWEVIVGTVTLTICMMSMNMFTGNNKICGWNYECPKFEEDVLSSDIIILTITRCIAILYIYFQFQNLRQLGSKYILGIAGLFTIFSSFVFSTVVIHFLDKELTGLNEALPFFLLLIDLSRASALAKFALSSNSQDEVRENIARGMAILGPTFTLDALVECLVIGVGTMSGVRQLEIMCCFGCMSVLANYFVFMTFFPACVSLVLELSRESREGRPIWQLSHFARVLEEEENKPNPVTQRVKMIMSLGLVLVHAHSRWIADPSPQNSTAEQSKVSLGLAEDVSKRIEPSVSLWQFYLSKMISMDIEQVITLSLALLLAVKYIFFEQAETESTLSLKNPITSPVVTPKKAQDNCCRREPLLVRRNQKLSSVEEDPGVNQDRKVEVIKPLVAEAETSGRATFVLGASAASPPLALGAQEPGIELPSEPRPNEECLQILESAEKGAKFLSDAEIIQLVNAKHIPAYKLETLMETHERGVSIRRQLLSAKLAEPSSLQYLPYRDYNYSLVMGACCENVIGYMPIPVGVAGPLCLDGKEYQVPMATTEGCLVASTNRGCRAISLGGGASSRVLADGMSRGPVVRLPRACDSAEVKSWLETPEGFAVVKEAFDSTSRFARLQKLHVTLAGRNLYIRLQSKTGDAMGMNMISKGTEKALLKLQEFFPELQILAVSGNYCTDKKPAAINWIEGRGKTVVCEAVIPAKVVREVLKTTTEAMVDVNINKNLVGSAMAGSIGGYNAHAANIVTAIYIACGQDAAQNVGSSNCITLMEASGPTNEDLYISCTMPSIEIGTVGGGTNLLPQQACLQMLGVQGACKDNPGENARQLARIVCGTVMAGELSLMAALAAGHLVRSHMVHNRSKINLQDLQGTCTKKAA
Assay: enzyme activity determination, inhibition of HMG-CoA reductase relative to mevinolin
Type: biochemical, Male Rico rats (liver)
Details: relative inhibitory potency; IC50 of reference mevinolin set at 1 and compared with simultaneously determined IC50 of test compound; 20 min pre-incubation, 60 min at 37° C.
Description: The enzyme activity determination was carried out as modified by G. C. Ness et al., Archives of Biochemistry and Biophysics 197, 493-499 (1979). Male Rico rats (body weight 300-400 g) were treated with altromin powdered feed, to which 40 g of colestyramine/kg of feed had been added, for 11 days. After decapitation, the livers were removed from the animals and placed on ice. The livers were comminuted and homogenized 3 times in a Potter-Elvejem homogenizsr in 3 volumes of 0.1 M sucrose, 0.05 M KCl, 0.04 M Kx Hy phosphate, 0.03 M ethylene-diaminetetraacetic acid, 0.002 M dithiothreitol (SPE) buffer pH 7.2. The mixture was then centrifuged at 15,000 g for 15 minutes and the sediment was discarded. The supernatant was sedimented at 100,000 g for 75 minutes. The pellet was taken up in 1/4 volumes of SPE buffer, homogenized again and then centrifuged again at 100,000 g for 60 minutes. The pellet was taken up using a 5-fold amount of its volume of SPE buffer, homogenized and frozen and stored at -78° C. (=enzyme solution).
For testing, the test compounds (or mevinolin as a reference substance) were dissolved in dimethylformamide with the addition of 5 vol. % of 1 N NaOH and employed in the enzyme test using 10 μl in various concentrations. The test was begun after 20 minutes pre-incubation of the compounds with the enzyme at 37° C. The test mixture amounted to 0.380 ml and contained 4 μmol of glucose 6-phosphate, 1.1 mg of bovine serum albumin, 2.1 μmol of dithiothreitol, 0.35 μmol of NADP, 1 unit of glucose 6-phosphate dehydrogenase, 35 μmol of Kx Hy phosphate pH 7.2, 20 μl of enzyme preparation and 56 nmol of 3-hydroxy-3-methyl--glutaryl coenzyme A (glutaryl-3-^14 C) of 100,000 dpm.
After an incubation of 60 minutes at 37° C., the mixture was centrifuged and 600 μl of the supernatant was applied to a 0.7×4 cm column packed with a 5-chloride 100-200 mesh (anion exchanger). The column was washed with 2 ml of distilled water and 3 ml of Aquasol was added to the runnings plus washing water and counted in an LKB scintillation counter. IC50 values were determined by intrapolation by plotting the percentage inhibition against the concentration of the compound in the test. In order to determine the relative inhibitory potency, the IC50 value of the reference substance mevinolin was set at 1 and compared with the simultaneously determined IC50 value of the test compound.

in vitro relative activity (Mevinolin = 1)	SMILES
3	COC(=O)C[C@H](O)C[C@H](O)/C=C/c1c(C(C)C)nc2[nH]ccc2c1-c1ccc(F)cc1 (relative stereo) [Example 1a, Methyl erythro-(E)-7-[4-(4-fluorophenyl)-6-isopropyl-1H-pyrrolo[2,3-b]pyridin-5-yl]3,5-dihydroxy-hept-6-enoate]
3	COC(=O)C[C@H](O)C[C@H](O)/C=C/c1c(C(C)C)nc2c(ccn2C)c1-c1ccc(F)cc1 (relative stereo) [Example 1b]
13	COC(=O)C[C@H](O)C[C@H](O)/C=C/c1c(C(C)C)nc2c(ccn2C(C)C)c1-c1ccc(F)cc1 (relative stereo) [Example 1c]
27	COC(=O)C[C@H](O)C[C@H](O)/C=C/c1c(C(C)C)nc2c(ccn2CC#N)c1-c1ccc(F)cc1 (relative stereo) [Example 1d]
17	C#CCn1ccc2c(-c3ccc(F)cc3)c(/C=C/[C@@H](O)C[C@@H](O)CC(=O)OC)c(C(C)C)nc21 (relative stereo) [Example 1e]
17	COC(=O)C[C@H](O)C[C@H](O)/C=C/c1c(C(C)C)nc2c(ccn2CCc2ccccc2)c1-c1ccc(F)cc1 (relative stereo) [Example 1f]
4	COC(=O)C[C@H](O)C[C@H](O)/C=C/c1c(C(C)C)nc2c(ccn2Cc2ccccc2)c1-c1ccc(F)cc1 (relative stereo) [Example 1g]
33	C=CCn1ccc2c(-c3ccc(F)cc3)c(/C=C/[C@@H](O)C[C@@H](O)CC(=O)OC)c(C(C)C)nc21 (relative stereo) [Example 1h]
9	COC(=O)C[C@H](O)C[C@H](O)/C=C/c1c(C(C)C)nc2c(ccn2Cc2cccnc2)c1-c1ccc(F)cc1 (relative stereo) [Example 1i]
24	COC(=O)C[C@H](O)C[C@H](O)/C=C/c1c(C(C)C)nc2c(ccn2CCC#N)c1-c1ccc(F)cc1 (relative stereo) [Example 1j]
3	CC(C)c1nc2[nH]ccc2c(-c2ccc(F)cc2)c1/C=C/[C@@H](O)C[C@@H](O)CC(=O)O (relative stereo) [Example 2a, Sodium erythro-(E)-7-[4-(4-fluorophenyl)-6-isopropyl-1H-pyrrolo[2,3-b]pyridin-5-yl]-3,5-dihydroxy-hept-6-enoate]
3	CC(C)c1nc2c(ccn2C)c(-c2ccc(F)cc2)c1/C=C/[C@@H](O)C[C@@H](O)CC(=O)O (relative stereo) [Example 2b]
3	CC(C)c1nc2c(ccn2C(C)C)c(-c2ccc(F)cc2)c1/C=C/[C@@H](O)C[C@@H](O)CC(=O)O (relative stereo) [Example 2c]
10	CC(C)c1nc2c(ccn2CCc2ccccc2)c(-c2ccc(F)cc2)c1/C=C/[C@@H](O)C[C@@H](O)CC(=O)O (relative stereo) [Example 2f]
2	CC(C)c1nc2c(ccn2Cc2ccccc2)c(-c2ccc(F)cc2)c1/C=C/[C@@H](O)C[C@@H](O)CC(=O)O (relative stereo) [Example 2g]
10	C=CCn1ccc2c(-c3ccc(F)cc3)c(/C=C/[C@@H](O)C[C@@H](O)CC(=O)O)c(C(C)C)nc21 (relative stereo) [Example 2h]
